Starred links: 1 amine or outer side, 2 acyl side, 3 side chain; linkers in the order of their positions; H or OH if unused. Positions of bridges follow the written chain, without caps; N, C: chain ends. Residues, ends and D or L forms follow the SMILES beside them. *: point of attachment. X9 = CC(C)[C@@H](CNC(N)=O)NC(=O)NC[C@H](CSCc1ccc(-c2ccc(C[*:1])cc2)cc1)NC(=O)NC[C@H](C)N[*:2]; X12 = CC(C)[C@@H](CNC(N)=O)NC(=O)NC[C@H](C)NC(=O)NC[C@H](CSCc1ccc(C[*:1])cc1)N[*:2]; X1 = CC(C)[C@@H](CNC(N)=O)NC(=O)NC[C@H](C)NC(=O)NC[C@H](CSCCCCCC[*:1])N[*:2]; X13 = CC(C)[C@@H](CNC(N)=O)NC(=O)NC[C@H](C)NC(=O)NC[C@H](CSCCCCC[*:1])N[*:2]; X6 = CC(C)[C@@H](CNC(N)=O)NC(=O)NC[C@H](CSCCCCCC[*:1])NC(=O)NC[C@H](C)N[*:2]; X10 = CC(C)[C@@H](CNC(N)=O)NC(=O)NC[C@H](CSCCC[*:1])NC(=O)NC[C@H](C)N[*:2]; X8 = C[C@@H](CNC(N)=O)NC(=O)NC[C@H](C)NC(=O)NC[C@H](CSC/C=C/C[*:1])N[*:2]; X3 = CC(C)[C@@H](CNC(N)=O)NC(=O)NC[C@H](C)NC(=O)NC[C@H](C)N*; CH2CONHCH2CH2NHCOCH2 = O=C(C[*:1])NCCNC(=O)C[*:2]; pXylylene = c1cc(C[*:2])ccc1C[*:1]; X14 = C(=C\C[*:2])/C[*:1]; X11 = C(CCC[*:2])CC[*:1]; CH2CH2 = C(C[*:2])[*:1]; X7 = C(CC[*:1])CC[*:2]
Key:
[1] = target: Tumour suppressor p53/oncoprotein Mdm2 (Homo sapiens) (UniProt P04637+Q00987); assay: PROTAC activity at human MDM2/p53 extracted from Escherichia coli interaction by measuring inhibition of interaction at 100 nM by time-resolved fluorescence energy transfer (TRFRET) detection method relative to control; type: protein assay
[2] = target: Tumour suppressor protein p53/Mdm4 (Homo sapiens) (UniProt P04637+O15151); assay: PROTAC activity at human DMX/p53 extracted from Escherichia coli interaction at 100 nM by measuring inhibition of interaction by time-resolved fluorescence energy transfer (TRFRET) detection method relative to control; type: protein assay
[3] = target: Tumour suppressor protein p53/Mdm4 (Homo sapiens, UniProt O15151); assay: PROTAC activity at human DMX/p53 extracted from Escherichia coli interaction by measuring inhibition of interaction by time-resolved fluorescence energy transfer (TRFRET) detection method; type: protein assay
[4] = PROTAC activity at human DM2/p53 extracted from Escherichia coli interaction by measuring inhibition of interaction by time-resolved fluorescence energy transfer (TRFRET) detection method

Tumour suppressor protein p53/Mdm4 (Homo sapiens), sequence (O15151 whole entry, looked up): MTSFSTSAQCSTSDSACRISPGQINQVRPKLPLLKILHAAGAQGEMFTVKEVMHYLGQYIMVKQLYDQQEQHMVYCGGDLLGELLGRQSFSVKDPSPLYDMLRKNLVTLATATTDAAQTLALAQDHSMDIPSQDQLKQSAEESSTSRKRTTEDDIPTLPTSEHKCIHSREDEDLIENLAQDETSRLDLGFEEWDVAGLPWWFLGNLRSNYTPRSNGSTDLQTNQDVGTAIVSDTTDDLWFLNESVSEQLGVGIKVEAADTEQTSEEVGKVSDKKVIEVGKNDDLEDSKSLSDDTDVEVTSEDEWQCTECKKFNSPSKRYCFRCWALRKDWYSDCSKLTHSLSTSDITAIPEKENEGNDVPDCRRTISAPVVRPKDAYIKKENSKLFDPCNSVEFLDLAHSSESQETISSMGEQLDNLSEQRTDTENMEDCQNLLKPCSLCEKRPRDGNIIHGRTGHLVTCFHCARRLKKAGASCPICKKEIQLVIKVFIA
Tumour suppressor protein p53/Mdm4 (Homo sapiens), sequence (P04637 whole entry, looked up): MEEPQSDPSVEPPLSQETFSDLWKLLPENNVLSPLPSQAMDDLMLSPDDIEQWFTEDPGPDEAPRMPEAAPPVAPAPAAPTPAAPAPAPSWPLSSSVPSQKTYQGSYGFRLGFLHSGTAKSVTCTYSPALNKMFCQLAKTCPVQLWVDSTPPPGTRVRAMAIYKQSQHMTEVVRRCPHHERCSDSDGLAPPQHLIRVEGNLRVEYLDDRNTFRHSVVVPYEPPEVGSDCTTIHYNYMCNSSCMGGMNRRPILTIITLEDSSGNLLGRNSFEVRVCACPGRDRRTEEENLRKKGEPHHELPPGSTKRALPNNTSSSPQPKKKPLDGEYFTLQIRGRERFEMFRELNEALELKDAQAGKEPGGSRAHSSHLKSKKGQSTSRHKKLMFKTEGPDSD
Tumour suppressor p53/oncoprotein Mdm2 (Homo sapiens), sequence (P04637 whole entry, looked up): as above
Tumour suppressor p53/oncoprotein Mdm2 (Homo sapiens), sequence (Q00987 whole entry, looked up): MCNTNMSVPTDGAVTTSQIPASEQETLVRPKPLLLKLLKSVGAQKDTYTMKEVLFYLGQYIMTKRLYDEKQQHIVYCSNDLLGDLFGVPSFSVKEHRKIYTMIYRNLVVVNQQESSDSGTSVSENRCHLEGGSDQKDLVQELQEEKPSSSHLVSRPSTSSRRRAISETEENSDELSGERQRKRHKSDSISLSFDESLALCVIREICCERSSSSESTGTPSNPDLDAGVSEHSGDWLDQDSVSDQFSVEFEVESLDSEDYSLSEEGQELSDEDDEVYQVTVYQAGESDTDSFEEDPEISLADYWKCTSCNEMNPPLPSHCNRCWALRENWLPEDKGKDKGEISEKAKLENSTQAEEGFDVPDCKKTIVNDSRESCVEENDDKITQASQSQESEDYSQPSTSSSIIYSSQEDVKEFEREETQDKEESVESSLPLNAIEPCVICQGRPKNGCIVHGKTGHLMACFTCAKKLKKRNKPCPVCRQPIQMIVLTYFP
Tumour suppressor protein p53/Mdm4, sequence (P04637 whole entry): as the sequence (P04637 whole entry, looked up) above
Tumour suppressor protein p53/Mdm4, sequence (O15151 whole entry): as the sequence (O15151 whole entry, looked up) above

| inhibition [1] [%] | inhibition [2] [%] | IC50 [3] [µM] | IC50 [4] [µM] | SMILES |
| --- | --- | --- | --- | --- |
| 50 | 23 |  |  | CC(C)[C@@H](CNC(N)=O)NC(=O)NC[C@H](C)NC(=O)NC[C@H](C)NC(=O)[C@H](Cc1c[nH]c2ccccc12)NC(=O)[C@H](Cc1ccc(O)cc1)NC(=O)[C@@H]1CSSC[C@H](NC(=O)[C@@H](N)[C@@H](C)O)C(=O)N[C@@H](Cc2ccccc2)C(=O)N[C@@H](C)C(=O)N1 (H-TCFACYW-X3; disulfide 2-5) |
| 20 | -4 |  |  | CC(C)[C@@H](CNC(N)=O)NC(=O)NC[C@H](C)NC(=O)NC[C@H](C)NC(=O)[C@H](Cc1c[nH]c2ccccc12)NC(=O)[C@H](Cc1ccc(O)cc1)NC(=O)[C@@H]1CSSC[C@H](N)C(=O)N[C@@H](CO)C(=O)N[C@@H](Cc2ccccc2)C(=O)N[C@@H](C)C(=O)N1 (H-CSFACYW-X3; disulfide 1-5) |
| 37 | 14 |  |  | CC(C)[C@@H](CNC(N)=O)NC(=O)NC[C@H](C)NC(=O)NC[C@H](C)NC(=O)[C@H](Cc1c[nH]c2ccccc12)NC(=O)[C@H](Cc1ccc(O)cc1)NC(=O)[C@@H]1CSCc2ccc(cc2)CSC[C@H](N)C(=O)N[C@@H](CO)C(=O)N[C@@H](Cc2ccccc2)C(=O)N[C@@H](C)C(=O)N1 (H-CSFACYW-X3; linker 1-5 via pXylylene) |
| 30 | 12 |  |  | CC(C)[C@@H](CNC(N)=O)NC(=O)NC[C@H](C)NC(=O)NC[C@H](C)NC(=O)[C@H](Cc1c[nH]c2ccccc12)NC(=O)[C@H](Cc1ccc(O)cc1)NC(=O)[C@@H]1CSCCCCCSC[C@H](NC(=O)[C@@H](N)[C@@H](C)O)C(=O)N[C@@H](Cc2ccccc2)C(=O)N[C@@H](C)C(=O)N1 (H-TCFACYW-X3; linker 2-5 via X7) |
| 42 | -3 |  |  | CC(C)[C@@H](CNC(N)=O)NC(=O)NC[C@H](C)NC(=O)NC[C@@H]1CSCCCCCCSC[C@H](NC(=O)[C@H](Cc2ccccc2)NC(=O)[C@H](CO)NC(=O)[C@@H](N)[C@@H](C)O)C(=O)N[C@@H](C)C(=O)N[C@@H](Cc2ccc(O)cc2)C(=O)N[C@@H](Cc2c[nH]c3ccccc23)C(=O)N1 (H-TSFCAYW; linker 4-C via X1) |
| 15 | 1 |  |  | CC(C)[C@@H](CNC(N)=O)NC(=O)NC[C@H](C)NC(=O)NC[C@H](C)NC(=O)[C@H](Cc1c[nH]c2ccccc12)NC(=O)[C@H](Cc1ccc(O)cc1)NC(=O)[C@@H]1CSCCCCCCSC[C@H](N)C(=O)N[C@@H](CO)C(=O)N[C@@H](Cc2ccccc2)C(=O)N[C@@H](C)C(=O)N1 (H-CSFACYW-X3; linker 1-5 via X11) |
| 88 | 68 |  |  | CC(C)[C@@H](CNC(N)=O)NC(=O)NC[C@H](C)NC(=O)NC[C@H](C)NC(=O)[C@H](Cc1c[nH]c2ccccc12)NC(=O)[C@H](Cc1ccc(O)cc1)NC(=O)[C@@H]1CSC/C=C/CSC[C@H](N)C(=O)N[C@@H](CO)C(=O)N[C@@H](Cc2ccccc2)C(=O)N[C@@H](C)C(=O)N1 (H-CSFACYW-X3; linker 1-5 via X14) |
| 21 | -4 |  |  | CC(C)[C@@H](CNC(N)=O)NC(=O)NC[C@H](C)NC(=O)NC[C@@H]1CSCc2ccc(cc2)CSC[C@H](NC(=O)[C@H](Cc2ccccc2)NC(=O)[C@H](CO)NC(=O)[C@@H](N)[C@@H](C)O)C(=O)N[C@@H](CCC(=O)O)C(=O)N[C@@H](Cc2ccc(O)cc2)C(=O)N[C@@H](Cc2c[nH]c3ccccc23)C(=O)N1 (H-TSFCEYW; linker 4-C via X12) |
| 58 | 16 |  |  | CC(C)[C@@H](CNC(N)=O)NC(=O)NC[C@H](C)NC(=O)NC[C@H](C)NC(=O)[C@H](Cc1c[nH]c2ccccc12)NC(=O)[C@H](Cc1ccc(O)cc1)NC(=O)[C@@H]1CSCCCCCSC[C@H](N)C(=O)N[C@@H](CO)C(=O)N[C@@H](Cc2ccccc2)C(=O)N[C@@H](C)C(=O)N1 (H-CSFACYW-X3; linker 1-5 via X7) |
| 36 | 14 |  |  | CC(C)[C@@H](CNC(N)=O)NC(=O)NC[C@H](C)NC(=O)NC[C@H](C)NC(=O)[C@H](Cc1c[nH]c2ccccc12)NC(=O)[C@H](Cc1ccc(O)cc1)NC(=O)[C@@H]1CSCCCCCCSC[C@H](NC(=O)[C@@H](N)[C@@H](C)O)C(=O)N[C@@H](Cc2ccccc2)C(=O)N[C@@H](C)C(=O)N1 (H-TCFACYW-X3; linker 2-5 via X11) |
| 83 | 47 |  |  | CC(C)[C@@H](CNC(N)=O)NC(=O)NC[C@H](C)NC(=O)NC[C@H](C)NC(=O)[C@H](Cc1c[nH]c2ccccc12)NC(=O)[C@H](Cc1ccc(O)cc1)NC(=O)[C@@H]1CSCC(=O)NCCNC(=O)CSC[C@H](N)C(=O)N[C@@H](CO)C(=O)N[C@@H](Cc2ccccc2)C(=O)N[C@@H](C)C(=O)N1 (H-CSFACYW-X3; linker 1-5 via CH2CONHCH2CH2NHCOCH2) |
| 73 | 38 |  |  | CC(C)[C@@H](CNC(N)=O)NC(=O)NC[C@H](C)NC(=O)NC[C@H](C)NC(=O)[C@H](Cc1c[nH]c2ccccc12)NC(=O)[C@H](Cc1ccc(O)cc1)NC(=O)[C@@H]1CSCC(=O)NCCNC(=O)CSC[C@H](NC(=O)[C@@H](N)[C@@H](C)O)C(=O)N[C@@H](Cc2ccccc2)C(=O)N[C@@H](C)C(=O)N1 (H-TCFACYW-X3; linker 2-5 via CH2CONHCH2CH2NHCOCH2) |
| 47 | 39 |  |  | CC(C)[C@@H](CNC(N)=O)NC(=O)NC[C@H](C)NC(=O)NC[C@H](C)NC(=O)[C@H](Cc1c[nH]c2ccccc12)NC(=O)[C@H](Cc1ccc(O)cc1)NC(=O)[C@@H]1CSCCSC[C@H](N)C(=O)N[C@@H](CO)C(=O)N[C@@H](Cc2ccccc2)C(=O)N[C@@H](C)C(=O)N1 (H-CSFACYW-X3; linker 1-5 via CH2CH2) |

The remaining lines, values behind:

| SMILES | inhibition [1] [%] | inhibition [2] [%] | IC50 [3] [µM] | IC50 [4] [µM] |
| --- | --- | --- | --- | --- |
| CC(C)[C@@H](CNC(N)=O)NC(=O)NC[C@@H]1CSCc2ccc(cc2)-c2ccc(cc2)CSC[C@H](N)C(=O)N[C@@H](CO)C(=O)N[C@@H](Cc2ccccc2)C(=O)N[C@@H](C)C(=O)N[C@@H](CCC(=O)O)C(=O)N[C@@H](Cc2ccc(O)cc2)C(=O)N[C@@H](Cc2c[nH]c3ccccc23)C(=O)N[C@@H](C)CNC(=O)N1 (H-CSFAEYW; linker 1-C via X9) | 7 | 10 |  |  |
| C[C@@H](CNC(N)=O)NC(=O)NC[C@H](C)NC(=O)NC[C@@H]1CSC/C=C/CSC[C@H](NC(=O)[C@H](Cc2ccccc2)NC(=O)[C@H](CO)NC(=O)[C@@H](N)[C@@H](C)O)C(=O)N[C@@H](CCC(=O)O)C(=O)N[C@@H](Cc2ccc(O)cc2)C(=O)N[C@@H](Cc2c[nH]c3ccccc23)C(=O)N1 (H-TSFCEYW; linker 4-C via X8) | 82 | 57 |  |  |
| CC(C)[C@@H](CNC(N)=O)NC(=O)NC[C@H](C)NC(=O)NC[C@@H]1CSCCCCCCSC[C@H](NC(=O)[C@H](Cc2ccccc2)NC(=O)[C@H](CO)NC(=O)[C@@H](N)[C@@H](C)O)C(=O)N[C@@H](CCCNC(=N)N)C(=O)N[C@@H](Cc2ccc(O)cc2)C(=O)N[C@@H](Cc2c[nH]c3ccccc23)C(=O)N1 (H-TSFCRYW; linker 4-C via X1) | 42 | 2 |  |  |
| CC(C)[C@@H](CNC(N)=O)NC(=O)NC[C@@H]1CSCCCSC[C@H](NC(=O)[C@H](C)NC(=O)[C@H](Cc2ccccc2)NC(=O)[C@H](CO)NC(=O)[C@@H](N)[C@@H](C)O)C(=O)N[C@@H](Cc2ccc(O)cc2)C(=O)N[C@@H](Cc2c[nH]c3ccccc23)C(=O)N[C@@H](C)CNC(=O)N1 (H-TSFACYW; linker 5-C via X10) | 15 | 4 |  |  |
| CC(C)[C@@H](CNC(N)=O)NC(=O)NC[C@@H]1CSCCCCCCSC[C@H](N)C(=O)N[C@@H](CO)C(=O)N[C@@H](Cc2ccccc2)C(=O)N[C@@H](C)C(=O)N[C@@H](CCC(=O)O)C(=O)N[C@@H](Cc2ccc(O)cc2)C(=O)N[C@@H](Cc2c[nH]c3ccccc23)C(=O)N[C@@H](C)CNC(=O)N1 (H-CSFAEYW; linker 1-C via X6) | 70 | 54 |  |  |
| CC(C)[C@@H](CNC(N)=O)NC(=O)NC[C@H](C)NC(=O)NC[C@@H]1CSCCCCCSC[C@H](NC(=O)[C@H](Cc2ccccc2)NC(=O)[C@H](CO)NC(=O)[C@@H](N)[C@@H](C)O)C(=O)N[C@@H](CCC(=O)O)C(=O)N[C@@H](Cc2ccc(O)cc2)C(=O)N[C@@H](Cc2c[nH]c3ccccc23)C(=O)N1 (H-TSFCEYW; linker 4-C via X13) | 79 | 47 |  |  |
| CC(=O)N[C@@H](CCCCN)C(=O)N[C@H](C(=O)N[C@@H](Cc1ccccc1)C(=O)N[C@@H](C)C(=O)N[C@@H](CCC(=O)O)C(=O)N[C@@H](Cc1ccc(O)cc1)C(=O)N[C@@H](Cc1c[nH]c2ccccc12)C(=O)N[C@@H](C)CNC(=O)N[C@@H](C)CNC(=O)N[C@H](CNC(N)=O)C(C)C)[C@@H](C)O (Ac-KTFAEYW-X3) |  |  | 23.8 | 0.0057 |
| CC(C)[C@@H](CNC(N)=O)NC(=O)NC[C@H](C)NC(=O)NC[C@H](C)NC(=O)[C@H](Cc1c[nH]c2ccccc12)NC(=O)[C@H](Cc1ccc(O)cc1)NC(=O)[C@H](CCC(=O)O)NC(=O)[C@H](C)NC(=O)[C@H](Cc1ccccc1)NC(=O)[C@H](CO)NC(=O)[C@@H](N)CCCCN (H-KSFAEYW-X3) | 98 | 85 |  |  |
| CC(C)[C@@H](CNC(N)=O)NC(=O)NC[C@H](C)NC(=O)NC[C@@H]1CSCCCCCCSC[C@H](NC(=O)[C@H](Cc2ccccc2)NC(=O)[C@H](CO)NC(=O)[C@@H](N)[C@@H](C)O)C(=O)N[C@@H](CCC(N)=O)C(=O)N[C@@H](Cc2ccc(O)cc2)C(=O)N[C@@H](Cc2c[nH]c3ccccc23)C(=O)N1 (H-TSFCQYW; linker 4-C via X1) | 85 | 36 |  |  |
| CC(C)[C@@H](CNC(N)=O)NC(=O)NC[C@H](C)NC(=O)NC[C@H](C)NC(=O)[C@H](Cc1c[nH]c2ccccc12)NC(=O)[C@H](Cc1ccc(O)cc1)NC(=O)[C@H](CCC(=O)O)NC(=O)[C@H](C)NC(=O)[C@H](Cc1ccccc1)NC(=O)[C@H](CO)NC(=O)[C@@H](NC(=O)[C@H](CCCNC(=N)N)NC(=O)[C@H](CCCNC(=N)N)NC(=O)[C@@H](N)CCCNC(=N)N)[C@@H](C)O (H-RRRTSFAEYW-X3) | 95 | 81 |  |  |
